Data reported in patent publication US12052991B2, “Substituted pyridinyloxybenzenes and salts thereof and use thereof as herbicidal agents” (Bayer Aktiengesellschaft, priority 2018, dated 2024).

Legend:
Type in all cases: in vivo
[1] = tested on: Matricaria inodora (MATIN); experiment: Herbicidal post-emergence action (Table B7); conditions: 1280 g/ha; rated visually after about 3 weeks; 100% = plants have died, 0% = like control plants
Protocol: Seeds of mono- and dicotyledonous weed plants were placed in plastic pots in sandy loam soil (doubly sown with in each case one species of mono- or dicotyledonous weed plants per pot), covered with soil and cultivated in a greenhouse under controlled growth conditions. 2 to 3 weeks after sowing, the test plants were treated at the one-leaf stage. The compounds of the invention, formulated in the form of wettable powders (WP) or as emulsion concentrates (EC), were applied onto the green parts of the plants as aqueous suspension or emulsion with addition of 0.5% additive at a water application rate of 600 liters per hectare (converted). After the test plants had been kept in the greenhouse under optimum growth conditions for about 3 weeks, the activity of the preparations was rated visually in comparison to untreated controls. For example, 100% activity=the plants have died, 0% activity=like control plants. Tables B1 to B12 below show the effects of selected compounds of the general formula (I) according to Table 1 on various harmful plants and an application rate corresponding to 1280 or 320 g/ha, which were obtained by the experimental procedure mentioned above.

Stellaria media (STEME) [2] = experiment: Herbicidal post-emergence action (Table B8); conditions: visual rating about 3 weeks after treatment, 100% = plants have died, 0% = like control plants
Method in brief: (§1)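 Post-emergence spray, one-leaf stage (2–3 wk after sowing), sandy loam, greenhouse. WP/EC in water + 0.5% additive, 600 L/ha, 1280 or 320 g/ha. Visual % activity vs untreated after ~3 wk (0% = like control, 100% = plants dead).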

Stellaria media (STEME) [3] = experiment: Herbicidal pre-emergence action, test C (Table C8); conditions: visual scoring after about 3 weeks, 100% = plants have died, 0% = like control plants
Method in brief: (§2)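 Greenhouse pre-emergence test: compound formulations (WP or EC) are applied at 1280 or 320 g/ha to the soil surface over sown weed seeds, with 0.5% additive in 600 L/ha water. After about 3 weeks, percent activity is assessed visually, 100% indicating dead plants.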

[4] = tested on: Abutilon theophrasti (ABUTH); experiment: Herbicidal pre-emergence action, test C (Table C5); conditions: dosage 1280 g/ha; visual scoring after about 3 weeks; 100% = plants have died, 0% = like control plants
Method in brief: as §2

Veronica persica (VERPE) [5] = experiment: Herbicidal post-emergence action (Table B12); conditions: visual rating about 3 weeks after treatment, 100% = plants have died, 0% = like control plants
Method in brief: as §1

[6] = tested on: Amaranthus retroflexus (AMARE); experiment: Herbicidal post-emergence action (Table B6); conditions: visual rating about 3 weeks after treatment, 100% = plants have died, 0% = like control plants
Method in brief: as §1

Veronica persica (VERPE) [7] = experiment: Herbicidal pre-emergence action, test C (Table C12); conditions: dosage 1280 g/ha, visual scoring vs untreated controls
Method in brief: as §2

[8] = tested on: harmful plants ABUTH, AMARE, ECHCG, LOLRI, MATIN, POAAN, SETVI, STEME, ALOMY, DIGSA, KCHSC and VERPE; experiment: Herbicidal pre-emergence action (test C), summary of Tables C1-C12; conditions: application rate of 1280 or 320 g of active ingredient per hectare; summary in words
Method in brief: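 Visual % damage versus untreated plants (0% = like control, 100% = died) was scored after about 3 weeks in the greenhouse. Before emergence, seeds sown in sandy loam got a soil-surface spray of compound as WP or EC plus 0.5% additive, using 600 L/ha water at rates of 1280 or 320 g/ha.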

Bassia scoparia (KCHSC) = experiment: Herbicidal post-emergence action (Table B11); conditions: visual rating about 3 weeks after treatment, 100% = plants have died, 0% = like control plants
Method in brief: as §1

[9] = tested on: Alopecurus myosuroides (ALOMY); experiment: Herbicidal post-emergence action (Table B9); conditions: 1280 g/ha; rated visually after about 3 weeks; 100% = plants have died, 0% = like control plants
Method in brief: as §1

Poa annua (POAAN) [10] = experiment: Herbicidal pre-emergence action, test C (Table C3); conditions: visual scoring after about 3 weeks, 100% = plants have died, 0% = like control plants
Method in brief: as §2

[11] = tested on: Alopecurus myosuroides (ALOMY); experiment: Herbicidal pre-emergence action, test C (Table C9); conditions: dosage 1280 g/ha; visual scoring after about 3 weeks; 100% = plants have died, 0% = like control plants
Method in brief: as §2

[12] = tested on: Amaranthus retroflexus (AMARE); experiment: Herbicidal pre-emergence action, test C (Table C6); conditions: visual scoring after about 3 weeks, 100% = plants have died, 0% = like control plants
Method in brief: as §2

[13] = tested on: Matricaria inodora (MATIN); experiment: Herbicidal pre-emergence action, test C (Table C7); conditions: visual scoring after about 3 weeks, 100% = plants have died, 0% = like control plants
Method in brief: as §2

[14] = tested on: Abutilon theophrasti (ABUTH); experiment: Herbicidal post-emergence action (Table B5); conditions: rated visually after about 3 weeks, 100% = plants have died, 0% = like control plants
Method in brief: as §1

Poa annua (POAAN) [15] = experiment: Herbicidal post-emergence action (Table B3); conditions: rated visually after about 3 weeks, 100% = plants have died, 0% = like control plants
Method in brief: as §1

[16] = tested on: Digitaria sanguinalis (DIGSA); experiment: Herbicidal post-emergence action (Table B10); conditions: dosage 1280 g/ha; visual rating about 3 weeks after treatment; 100% = plants have died, 0% = like control plants
Method in brief: as §1

Setaria viridis (SETVI) = experiment: Herbicidal pre-emergence action, test C (Table C4); conditions: dosage 1280 g/ha; visual scoring after about 3 weeks; 100% = plants have died, 0% = like control plants
Method in brief: as §2

[17] = tested on: Digitaria sanguinalis (DIGSA); experiment: Herbicidal pre-emergence action, test C (Table C10); conditions: dosage 1280 g/ha; visual scoring after about 3 weeks; 100% = plants have died, 0% = like control plants
Method in brief: as §2

[18] = tested on: harmful plants ABUTH, AMARE, ECHCG, LOLRI, MATIN, POAAN, SETVI, STEME, ALOMY, DIGSA, KCHSC and VERPE; experiment: Herbicidal post-emergence action, summary of Tables B1-B12; conditions: application rate of 1280 or 320 g of active ingredient per hectare; summary in words
Method in brief: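 Activity scored by eye roughly 3 weeks post-treatment against untreated plants, from 0% (no effect) to 100% (plants dead). Application rates were 1280 or 320 g/ha, as aqueous WP/EC spray plus 0.5% additive at 600 L/ha, onto one-leaf-stage weeds grown 2–3 weeks in sandy loam.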

[19] = tested on: Echinochloa crus-galli (ECHCG); experiment: Herbicidal post-emergence action (Table B1); conditions: 1280 g/ha; rated visually after about 3 weeks; 100% = plants have died, 0% = like control plants
Method in brief: as §1

With `Cc1cc(C)c(-c2cc(C(F)F)no2)c(Oc2ncc(Cl)cc2F)c1` [Example 1-79] the “Post-emergence action against Matricaria inodora (MATIN)” value [1] was 90%, the “Post-emergence action against Stellaria media (STEME)” value (Stellaria media (STEME) [2]; dosage 320 g/ha) was 100% and the “Post-emergence action against Stellaria media (STEME)” value (Stellaria media (STEME) [2]; dosage 1280 g/ha) was 100%. For the same compound, the “Pre-emergence action against Stellaria media (STEME)” value (Stellaria media (STEME) [3]; dosage 320 g/ha) was 100%, the “Pre-emergence action against Stellaria media (STEME)” value (Stellaria media (STEME) [3]; dosage 1280 g/ha) was 100% and the “Pre-emergence action against Abutilon theophrasti (ABUTH)” value [4] was 90%. For the same compound, the “Post-emergence action against Veronica persica (VERPE)” value (from here on “Post-emergence action … (VERPE)”) (Veronica persica (VERPE) [5]; dosage 320 g/ha) was 100%, the “Post-emergence action … (VERPE)” value (Veronica persica (VERPE) [5]; dosage 1280 g/ha) was 100% and the “Post-emergence action against Amaranthus retroflexus (AMARE)” value ([6]; dosage 320 g/ha) was 100%. The “Post-emergence action against Amaranthus retroflexus (AMARE)” value ([6]; dosage 1280 g/ha) was 100%, the “Pre-emergence action against Veronica persica (VERPE)” value (Veronica persica (VERPE) [7]) was 100% and the “herbicidal activity against the harmful plants of Tables C1-C12 in pre-emergence treatment” value [8] was “very good herbicidal activity”. The “Post-emergence action against Bassia scoparia (KCHSC)” value (Bassia scoparia (KCHSC); dosage 320 g/ha) was 90%, the “Post-emergence action against Bassia scoparia (KCHSC)” value (Bassia scoparia (KCHSC); dosage 1280 g/ha) was 90% and the “Post-emergence action against Alopecurus myosuroides (ALOMY)” value [9] was 90%. The “Pre-emergence action against Poa annua (POAAN)” value (Poa annua (POAAN) [10]; dosage 320 g/ha) was 90%, the “Pre-emergence action against Poa annua (POAAN)” value (Poa annua (POAAN) [10]; dosage 1280 g/ha) was 100% and the “Pre-emergence action against Alopecurus myosuroides (ALOMY)” value [11] was 90%. For the same compound, the “Pre-emergence action against Amaranthus retroflexus (AMARE)” value ([12]; dosage 320 g/ha) was 100%, the “Pre-emergence action against Amaranthus retroflexus (AMARE)” value ([12]; dosage 1280 g/ha) was 100% and the “Pre-emergence action against Matricaria inodora (MATIN)” value ([13]; dosage 320 g/ha) was 100%. The “Pre-emergence action against Matricaria inodora (MATIN)” value ([13]; dosage 1280 g/ha) was 100%, the “Post-emergence action against Abutilon theophrasti (ABUTH)” value ([14]; 320 g/ha) was 100% and the “Post-emergence action against Abutilon theophrasti (ABUTH)” value ([14]; 1280 g/ha) was 100%. The “Post-emergence action against Poa annua (POAAN)” value (Poa annua (POAAN) [15]; 320 g/ha) was 100%, the “Post-emergence action against Poa annua (POAAN)” value (Poa annua (POAAN) [15]; 1280 g/ha) was 100% and the “Post-emergence action against Digitaria sanguinalis (DIGSA)” value [16] was 100%. For the same compound, the “Pre-emergence action against Setaria viridis (SETVI)” value (Setaria viridis (SETVI)) was 100%, the “Pre-emergence action against Digitaria sanguinalis (DIGSA)” value [17] was 100% and the “herbicidal activity against the harmful plants of Tables B1-B12 in post-emergence treatment” value [18] was “very good herbicidal activity”.

`Clc1ccc(Oc2ccccc2-c2ccc(Cl)cn2)nc1` [Example 1-75] was tested, and the “Post-emergence action against Matricaria inodora (MATIN)” value [1] was 100%, the “Post-emergence action … (VERPE)” value (Veronica persica (VERPE) [5]; dosage 1280 g/ha) was 100% and the “Post-emergence action against Alopecurus myosuroides (ALOMY)” value [9] was 90%. The “Post-emergence action against Echinochloa crus-galli (ECHCG)” value [19] was 100% and the “herbicidal activity against the harmful plants of Tables B1-B12 in post-emergence treatment” value [18] was “very good herbicidal activity”.
